# Experimental data from PMC10060354, “Discovery of a small molecule ligand of FRS2 that inhibits invasion and tumor growth” (Cellular Oncology, 2022).
# Values joined by “and” are separate entries in the source; they are usually repeats but may differ in a detail not shown here. Equal values may be shown once. Read-outs that look alike come from different tables or passages of the source.
# Experiments:
# GB1-FRS2_PTB:FGFR_PEP = target: T1, GB1-FRS2_PTB:FGFR_PEP (Homo sapiens, UniProt Q8WU20); test: nanoDSF competition assay with the FGFR peptide; type: binding; settings: PTB domain:FGFR peptide 1:5; 500 μM compound
# T1 construct: FRS2-PTB 11-140aa; 6xHis (N); made in house; host or cells: E. coli BL21 (DE3) for the protein
# T1 sequence (Q8WU20 11-140): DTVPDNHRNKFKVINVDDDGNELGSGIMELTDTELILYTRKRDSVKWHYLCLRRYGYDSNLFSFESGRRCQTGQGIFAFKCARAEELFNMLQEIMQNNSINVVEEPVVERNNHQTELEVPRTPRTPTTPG
# Experimental: (§1) Purified FRS2_PTB or GB1_FRS2_PTB protein tagged with 6 × Histidine residues and the B1 immunoglobulin binding domain of the streptococcal protein G (GB1) were diluted in the protein buffer (100 mM sodium phosphate, 50 mM NaCl, 0.5 mM EDTA, 50 mM arginine, 1 mM TCEP, pH 7.0) to 30 μM, GB-1 to 40 μM. FGFR_PEP, compounds or paracetamol (PARA) as negative control were dissolved at 1 mM in the protein buffer supplemented with 10% DMSO. Compound and protein were mixed at 1:1 volume ratio yielding a final concentration of 15 μM and 20 μM for FRS2_PTB/GB1_FRS2_PTB and GB1, respectively, as well as 500 μM for FGFR_PEP or compounds. The mixture was incubated for 15 min. Each compound was measured in triplicates. Protein controls were measured in six replicates in the beginning. The quality of the screen was assessed by the Z-factor. nanoDSF validation studies were performed on a Prometheus® system in high sensitivity capillaries. Samples were heated with 1 °C/min from 20 to 95 °C. Each compound was measured in triplicates. GB1-FRS2_PTB and GB1 were diluted in the protein buffer (100 mM sodium phosphate, 50 mM NaCl, 0.5 mM EDTA, 50 mM arginine, 1 mM TCEP, pH 7.0) to 30 μM. Compounds 3.3, 3.4, 3.18 as well as the 3.18 analogues were dissolved in 100% DMSO at 50 or 100 mM and further diluted to 1 mM with a final […]. FGFR_PEP was dissolved at 1 mM in the protein buffer supplemented with 10% DMSO. Compound and protein were mixed at 1:1 volume ratio yielding final concentrations of 15 μM protein and 500 μM for the compounds. FGFR_PEP was measured against both GB1-FRS2_PTB and GB1, all other compounds only against GB1-FRS2_PTB. The mixture was incubated for 15 min before measurement. The data was analyzed for both the ratio of signals at 330 and 350 nm and at 350 nm alone. For the competition assays, the PTB domain and the FGFR peptide were mixed at a 1:5 ratio, and ligand competition was assayed in the presence of 500 μM compound.
# [1] = Solubility at the concentration required for the biophysical assays; type: physicochemical; settings: 5% DMSO
# DAOY cells [2] = test: Spheroid invasion assay (SIA), bFGF-induced collagen I invasion; type: cell-based, human; settings: DAOY cells, n = 3 technical replicas, read-out: EC50 for the inhibition of bFGF-induced collagen I invasion
# Experimental: (§2) 1000—2500 cells/well in 100 μl were seeded in 96 well Corning® Spheroid microplate (CLS4520, Sigma-Aldrich) or in cell-repellent 96 well microplate (650,790, Greiner Bio-one). SIA and analysis was performed as described before. In brief: After spheroid formation (24 – 72 h after seeding), 70 µl medium was removed and replaced with the collagen mixture (2.5 mg/ml Pure Col Collagen I (Advanced Biomatrix)), DMEM 1x (from 10 × stock, Sigma, D2429) and 0.4% Sodium bicarbonate (Sigma, S8761)), resulting in a final collagen concentration of 1.75 mg/ml. Embedded spheroids were stimulated with bFGF (100 ng/ml if not otherwise stated), HGF (30 ng /ml) or EGF (20 ng/ml) and distance of invaded cells quantified 24 – 48 h after embedding. Compounds and BGJ398 were added in Dimethylsulfoxid (DMSO) and corresponding DMSO concentrations were used in control samples.
# DAOY cells [3] = test: SIA, EGF-induced cell invasion; type: cell-based, human; settings: 10 µM
# Experimental: as §2
# FRS2_PTB = target: T2, FRS2_PTB (Homo sapiens, UniProt Q8WU20); test: nano differential scanning fluorimetry (nanoDSF); type: binding; settings: 500 μM ligand
# T2 construct: FRS2-PTB 11-140aa; 6xHis; made in house; host or cells: E. coli BL21 (DE3)
# T2 sequence (Q8WU20 11-140): T1 sequence (Q8WU20 11-140)
# Experimental: Assay establishment and pilot nanoDSF experiments were performed with a Tycho® system. Each experiment was performed by mixing the protein and ligand of interest at a 1:1 ratio and subsequent incubation for 15–30 min at room temperature. Controls of protein alone and ligand alone in identical buffer compositions as for the complex were measured accordingly. The temperature gradient ranged from 35 to 95 °C, and the heating rate was 30 °C/min. Inflection temperatures TI were calculated from the first derivative of the spectra obtained at the ratio of the signals at 350 nm to those at 330 nm. ΔTI of a complex was calculated as following: ΔTI,complex = TI,complex – TI,protein.
# The in-built software version 1.1.5.668 (NanoTemper Technologies, Munich, Germany) and Microsoft Office Excel 365 (Microsoft Corp., Seattle, USA) was used for data analysis. Data was plotted with GraphPad Prism vers. 8.3.0 (GraphPad Software, San Diego, USA).
# as §1, with “For the competition assays, the PTB domain and the FGFR peptide were mixed at a 1:5 ratio, and ligand competition was assayed in the presence of 500 μM compound.” left out
# GB1-FRS2-PTB = target: T3, GB1-FRS2-PTB (Homo sapiens, UniProt Q8WU20); test: Microscale thermophoresis (MST); type: binding
# T3 construct: FRS2-PTB 11-140aa; 6xHis (N); made in house; host or cells: E. coli BL21 (DE3)
# T3 sequence (Q8WU20 11-140): T1 sequence (Q8WU20 11-140)
# Experimental: Protein labeling for MST was performed with the 2nd Generation BLUE-NHS dye. GB1-FRS2_PTB- was labelled at 20 μM with 60 μM dye and incubated for 30 min in the dark at room temperature. The labelling was performed in the protein buffer without arginine supplementation. It was rebuffered to protein buffer (100 mM sodium phosphate, 50 mM NaCl, 0.5 mM EDTA, 50 mM arginine, 1 mM TCEP, pH 7.0). The dye was subsequently removed by gravitational flow chromatography and the protein concentration determined by UV-spectroscopy. The assay was established with the FGFR_PEP. […] A total volume of 10 μl of 50 nM labelled protein was added to 10 μl of the peptide dilution series for a final labelled protein concentration of 25 nM. The samples were incubated for 15 min at RT. […] Temperature was set to 25 °C. Each measurement was repeated twice. The interaction was measured in duplicates for the non-DMSO-supplemented buffer and in triplicates for DMSO-supplemented buffer. […] The samples were incubated for 15 min, and MST assessed as described above. Each measurement was repeated twice. The interaction was measured in two independent duplicates. […] The mixture was then measured for their initial fluorescence once. MST-experiments were performed with MO.Control vers. 1.6 (NanoTemper Technologies, Munich, Germany) and data analyzed with MO.Analysis vers. 2.3 (NanoTemper Technologies, Munich, Germany). Data was plotted with GraphPad Prism vers. 8.3.0 (GraphPad Software, San Diego, USA).
smiles,measurement,setting,value
O=[N+]([O-])c1c(Cl)cc(O)c2c1C1C=CCC1C(c1ccc(Br)cc1)N2 (stereo not drawn) [Compound 2],nanoDSF competition with FGFR peptide (result in words),GB1-FRS2_PTB:FGFR_PEP,negative shift in compound-mixed samples
same,solubility for biophysical assays (result in words),[1],soluble in 5% DMSO
O=[N+]([O-])c1c(Cl)cc(O)c2c1C1C=CCC1C(C1CC=CCC1)N2 (stereo not drawn) [Compound 3.18],EC50,DAOY cells [2],1.29 µM
same,EC50,"DAOY cells [2]; Homo sapiens, Daoy",1.29 µM
same,effect on EGF-induced cell invasion (result in words),DAOY cells [3],only moderately reduced
same,nanoDSF shift of the inflection point of the melting curve (ΔTm),FRS2_PTB,< -2 °C
same,nanoDSF competition with FGFR peptide (result in words),GB1-FRS2_PTB:FGFR_PEP,negative shift in compound-mixed samples
same,Kd,"GB1-FRS2-PTB; GB1-FRS2_PTB, read-out: KD, initial fluorescence change analysis",110 µM and 140 µM and 110 to 140 µM
same,binding by MST trace analysis (result in words),GB1-FRS2-PTB; signal:noise ratio > 5 counts as binding,no binding was detected
O=[N+]([O-])c1c(Cl)cc(O)c2c1C1C=CCC1C(c1ccccc1)N2 (stereo not drawn) [Compound 9],effect on EGF-induced cell invasion (result in words),DAOY cells [3],only moderately reduced
same,nanoDSF competition with FGFR peptide (result in words),GB1-FRS2_PTB:FGFR_PEP,negative shift in compound-mixed samples
same,solubility for biophysical assays (result in words),[1],soluble in 5% DMSO
